Data published in patent US6071954A, “(methylsulfonyl)phenyl-2-(5H)-furanones with oxygen link as COX-2 inhibitors” (Merk Frosst Canada, Inc., priority 1998, dated 2000).

What was measured:
Rat Paw Edema = test: Rat paw edema assay (carrageenan); assay type: in vivo, rat (male Sprague-Dawley); conditions: po, 1 hr before carrageenan, paw volume 3 hr later
Method: Male Sprague-Dawley rats (150-200 g) are fasted overnight and are given, po, either vehicle (1% methocel or 5% Tween 80) or a test compound. One hr later, a line is drawn using a permanent marker at the level above the ankle in one hind paw to define the area of the paw to be monitored. The paw volume (V0) is measured using a plethysmometer (Ugo-Basile, Italy) based on the principle of water displacement. The animals are then injected subplantarly with […] of 1% carrageenan solution in saline (FMC Corp, Maine) into the paw using an insulin syringe with a 25-gauge needle (i.e. […] carrageenan per paw). Three hr later, the paw volume (V3) is measured and the increases in paw volume (V3 -V0) are calculated. The animals are sacrificed by CO2 asphyxiation and the absence or presence of stomach lesions scored. Data is compared with the vehicle-control values and percent inhibition calculated. All treatment groups are coded to eliminate observer bias.

COX-2 [1] = target: T1, COX-2 (Homo sapiens, UniProt P35354); test: Whole cell assay for COX-2 using CHO transfected cell lines (CHO[hCOX-2]); assay type: cell-based; set-up: expressed in transfected cells; CHO[hCOX-2]; conditions: CHO[hCOX-2] cells, PGE2 synthesis in response to arachidonic acid
T1 sequence (P35354 18-604): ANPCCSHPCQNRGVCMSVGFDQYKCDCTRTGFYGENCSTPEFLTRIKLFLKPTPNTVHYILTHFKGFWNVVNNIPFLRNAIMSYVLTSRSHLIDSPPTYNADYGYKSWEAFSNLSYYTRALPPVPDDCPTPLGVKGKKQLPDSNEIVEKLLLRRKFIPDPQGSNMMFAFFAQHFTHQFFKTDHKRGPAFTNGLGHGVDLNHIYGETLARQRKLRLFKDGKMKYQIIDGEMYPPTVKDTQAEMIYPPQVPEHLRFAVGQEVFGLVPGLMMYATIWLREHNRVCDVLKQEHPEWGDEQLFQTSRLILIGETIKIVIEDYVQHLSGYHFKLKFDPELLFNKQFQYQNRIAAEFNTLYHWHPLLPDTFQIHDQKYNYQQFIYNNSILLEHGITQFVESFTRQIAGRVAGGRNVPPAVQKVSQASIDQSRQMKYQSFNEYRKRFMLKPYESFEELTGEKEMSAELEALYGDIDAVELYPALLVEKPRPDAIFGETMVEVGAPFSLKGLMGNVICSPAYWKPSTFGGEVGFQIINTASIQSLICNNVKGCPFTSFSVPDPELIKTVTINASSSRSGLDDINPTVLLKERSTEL
Method: Compounds are tested as inhibitors of cyclooxygenase activity in whole cell cyclooxygenase assays. These assays measure prostaglandin E2 synthesis in response to arachidonic acid, using a radioimmunoassay. Cells used for these assays are chinese hamster ovary (CHO) cell lines which have been stably transfected with an eukaryotic expression vector […] containing either the human Cox-1 or Cox-2 CDNA's. U937 cell microsomes are also used to measure Cox-1 activity.
Chinese hamster ovary (CHO) cell lines which have been stably transfected with an eukaryotic expression vector pCDNAIII containing either the human COX-1 or COX-2 cDNA's are used for the assay. These cell lines are referred to as CHO [hCOX-1] and CHO [hCOX-2], respectively. […] Drugs to be tested are dissolved in DMSO to 66.7-fold the highest test drug concentration. […] Cells (0.3×10^6 cells in 200 μl) are preincubated with 3 μl of the test drug or DMSO vehicle for 15 min at 37° C.
In the assay, inhibition is determined by measuring the amount of prostaglandin E2 (PGE2) synthesized in the presence of arachidonic acid, cyclooxygenase-1 or cyclooxygenase-2 and a putative inhibitor.

COX-2 [2] = target: T1, COX-2; test: Human whole blood assay, COX-2 (LPS-induced PGE2 production); assay type: cell-based; set-up: incubation of human whole blood with LPS, which induces COX-2; endogenous in cells; host or cells: fresh heparinized whole blood of human volunteers, LPS-stimulated; conditions: LPS-induced PGE2, 24 hours at 37° C, read-out: COX-2 (IC50) HWB
Source text: As well, platelets in whole blood contain a large amount of the COX-1 enzyme. Immediately following blood clotting, platelets are activated through a thrombin-mediated mechanism. This reaction results in the production of thromboxane B2 (TxB2) via activation of COX-1. Thus, the effect of test compounds on TxB2 levels following blood clotting can be examined and used as an index for COX-1 activity. Therefore, the degree of selectivity by the test compound can be determined by measuring the levels of PGE2 after LPS induction (COX-2) and TxB2 following blood clotting (COX-1) in the same assay. A. COX-2 (LPS-induced PGE2 production) Fresh blood is collected in heparinized tubes by venipuncture from both male and female volunteers. The subjects have no apparent inflammatory conditions and have not taken any NSAIDs for at least 7 days prior to blood collection. Plasma is immediately obtained from a 2 mL blood aliquot to use as blank (basal levels of PGE2). […] The supernatant is obtained and is assayed for PGE2 using a radioimmunoassay kit (Amersham, RPA#530) after conversion of PGE2 to its methyl oximate derivative according to the manufacturer's procedure.

IC50 (COX-2 [1]) [µM]	IC50 (COX-2 [2]) [µM]	Structure (SMILES)	ED50 (Rat Paw Edema) [mg/kg]
		CC1(C)OC(=O)C(OC2CCC(F)(F)CC2)=C1c1ccc(S(C)(=O)=O)cc1 [Example 17]	0.9
		CC1(C)OC(=O)C(OC(C(F)(F)F)C(F)(F)F)=C1c1ccc(S(C)(=O)=O)cc1 [Example 2, 5,5-Dimethyl-3-(1,1,1,3,3,3-hexafluoropropoxy)-4-(4-methylsulfonylphenyl)-5H-furan-2-one]	1
0.6	0.9	C[C@H](O)[C@@H](C)OC1=C(c2ccc(S(C)(=O)=O)cc2)C(C)(C)OC1=O (relative stereo) [Example 4]	
